Read-outs that look alike come from different tables or passages of the source.
Tests used:
p110γ = p110γ (Homo sapiens (Human), UniProt P48736); test: PI3K γ inhibition assay (TLC lipid kinase or HTRF); type: biochemical
Protocol: (§1) Class I PI3-Ks can be either purchased (p110α/p85α, p110β/p85α, p110δ/p85α from Upstate, and p110γ from Sigma) or expressed as previously described (Knight et al., 2004). IC50 values are measured using either a standard TLC assay for lipid kinase activity (described below) or a high-throughput membrane capture assay. Kinase reactions are performed by preparing a reaction mixture containing kinase, inhibitor (2% DMSO final concentration), buffer (25 mM HEPES, pH 7.4, 10 mM MgCl2), and freshly sonicated phosphatidylinositol (100 μg/ml). Reactions are initiated by the addition of ATP containing 10 μCi of γ-32P-ATP to a final concentration 10 or 100 μM and allowed to proceed for 5 minutes at room temperature. For TLC analysis, reactions are then terminated by the addition of […] 1N HCl followed by 160 μl CHCl3:MeOH (1:1). The biphasic mixture is vortexed, briefly centrifuged, and the organic phase is transferred to a new tube using a gel loading pipette tip precoated with CHCl3. This extract is spotted on TLC plates and developed for 3-4 hours in a 65:35 solution of n-propanol:1M acetic acid. The TLC plates are then dried, exposed to a phosphorimager screen (Storm, Amersham), and quantitated. For each compound, kinase activity is measured at 10-12 inhibitor concentrations representing two-fold dilutions from the highest concentration tested (typically, 200 μM).
(§2) Other commercial kits or systems for assaying PI3-K activities are available. The commercially available kits or systems can be used to screen for inhibitors and/or agonists of PI3-Ks including but not limited to PI 3-Kinase α, β, δ, and γ. Anr exemplary system is PI3-Kinase (human) HTRF™ Assay from Upstate. […] Briefly, the assay is a time resolved FRET assay that indirectly measures PIP3 product formed by the activity of a PI3-K. The kinase reaction is performed in a microtitre plate (e.g., a 384 well microtitre plate). The total reaction volume is approximately 20 ul per well. In the first step, each well receives 2 ul of test compound in 20% dimethylsulphoxide resulting in a 2% DMSO final concentration. Next, approximately 14.5 ul of a kinase/PIP2 mixture (diluted in 1× reaction buffer) is added per well for a final concentration of 0.25-0.3 ug/ml kinase and 10 uM PIP2. The plate is sealed and incubated for 15 minutes at room temperature. To start the reaction, 3.5 ul of ATP (diluted in 1× reaction buffer) is added per well for a final concentration of 10 uM ATP. The plate is sealed and incubated for 1 hour at room temperature. The reaction is stopped by adding 5 ul of Stop Solution per well and then 5 ul of Detection Mix is added per well. The plate is sealed, incubated for 1 hour at room temperature, and then read on an appropriate plate reader. Data is analyzed and IC50s are generated using GraphPad Prism 5.

Balb/c splenic B cells = test: B cell activation and proliferation assay (Alamar Blue); type: cell-based, mouse; details: Mus musculus, B-cell
Protocol: The ability of one or more subject compounds to inhibit B cell activation and proliferation is determined according to standard procedures known in the art. For example, an in vitro cellular proliferation assay is established that measures the metabolic activity of live cells. The assay is performed in a 96 well microtiter plate using Alamar Blue reduction. Balb/c splenic B cells are purified over a Ficoll-Paque™ PLUS gradient followed by magnetic cell separation using a MACS B cell Isolation Kit (Miletenyi). Cells are plated in 90 ul at 50,000 cells/well in B Cell Media (RPMI+10% FBS+Penn/Strep+50 uM bME+5 mM HEPES). A compound disclosed herein is diluted in B Cell Media and added in a 10 ul volume. Plates are incubated for 30 min at 37 C and 5% CO2 (0.2% DMSO final concentration). A 50 ul B cell stimulation cocktail is then added containing either 10 ug/ml LPS or 5 ug/ml F(ab′)2 Donkey anti-mouse IgM plus 2 ng/ml recombinant mouse IL4 in B Cell Media. Plates are incubated for 72 hours at 37° C. and 5% CO2. A volume of 15 uL of Alamar Blue reagent is added to each well and plates are incubated for 5 hours at 37 C and 5% CO2. Alamar Blue fluoresce is read at 560Ex/590Em, and IC50 or EC50 values are calculated using GraphPad Prism 5.

p110δ/p85α = p110δ/p85α (Homo sapiens (Human), UniProt O00329); test: PI3K δ inhibition assay (TLC lipid kinase or HTRF); type: biochemical
p110δ/p85α, sequence (O00329 whole entry): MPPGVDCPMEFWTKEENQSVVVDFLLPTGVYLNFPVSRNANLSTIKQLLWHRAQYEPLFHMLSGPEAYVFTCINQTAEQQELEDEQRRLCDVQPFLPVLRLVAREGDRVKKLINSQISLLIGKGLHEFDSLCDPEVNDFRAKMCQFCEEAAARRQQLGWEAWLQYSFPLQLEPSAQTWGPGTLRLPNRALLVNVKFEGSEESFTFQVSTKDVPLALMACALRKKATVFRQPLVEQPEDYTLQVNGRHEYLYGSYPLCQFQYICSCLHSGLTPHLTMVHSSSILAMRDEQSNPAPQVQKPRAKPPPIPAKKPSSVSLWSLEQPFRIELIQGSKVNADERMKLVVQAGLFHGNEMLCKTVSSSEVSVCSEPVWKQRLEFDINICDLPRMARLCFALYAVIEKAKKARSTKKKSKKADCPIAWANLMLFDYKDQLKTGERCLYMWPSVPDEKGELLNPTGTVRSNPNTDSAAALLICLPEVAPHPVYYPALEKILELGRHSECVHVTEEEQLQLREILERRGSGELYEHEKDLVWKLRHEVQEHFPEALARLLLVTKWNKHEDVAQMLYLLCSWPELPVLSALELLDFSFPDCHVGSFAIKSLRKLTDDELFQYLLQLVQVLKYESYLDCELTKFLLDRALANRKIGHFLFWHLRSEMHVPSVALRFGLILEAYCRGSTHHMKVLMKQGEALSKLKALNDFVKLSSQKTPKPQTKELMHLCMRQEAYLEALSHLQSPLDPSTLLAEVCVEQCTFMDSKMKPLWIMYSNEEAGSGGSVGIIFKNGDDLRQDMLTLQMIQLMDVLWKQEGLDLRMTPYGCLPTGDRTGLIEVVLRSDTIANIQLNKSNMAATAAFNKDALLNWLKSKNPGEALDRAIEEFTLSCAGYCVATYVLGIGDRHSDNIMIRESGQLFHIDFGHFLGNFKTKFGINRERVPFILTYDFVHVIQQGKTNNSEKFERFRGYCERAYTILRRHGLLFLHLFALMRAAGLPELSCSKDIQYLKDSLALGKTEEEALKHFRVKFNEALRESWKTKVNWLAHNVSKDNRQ
p110δ/p85α, sequence (P27986 whole entry partner): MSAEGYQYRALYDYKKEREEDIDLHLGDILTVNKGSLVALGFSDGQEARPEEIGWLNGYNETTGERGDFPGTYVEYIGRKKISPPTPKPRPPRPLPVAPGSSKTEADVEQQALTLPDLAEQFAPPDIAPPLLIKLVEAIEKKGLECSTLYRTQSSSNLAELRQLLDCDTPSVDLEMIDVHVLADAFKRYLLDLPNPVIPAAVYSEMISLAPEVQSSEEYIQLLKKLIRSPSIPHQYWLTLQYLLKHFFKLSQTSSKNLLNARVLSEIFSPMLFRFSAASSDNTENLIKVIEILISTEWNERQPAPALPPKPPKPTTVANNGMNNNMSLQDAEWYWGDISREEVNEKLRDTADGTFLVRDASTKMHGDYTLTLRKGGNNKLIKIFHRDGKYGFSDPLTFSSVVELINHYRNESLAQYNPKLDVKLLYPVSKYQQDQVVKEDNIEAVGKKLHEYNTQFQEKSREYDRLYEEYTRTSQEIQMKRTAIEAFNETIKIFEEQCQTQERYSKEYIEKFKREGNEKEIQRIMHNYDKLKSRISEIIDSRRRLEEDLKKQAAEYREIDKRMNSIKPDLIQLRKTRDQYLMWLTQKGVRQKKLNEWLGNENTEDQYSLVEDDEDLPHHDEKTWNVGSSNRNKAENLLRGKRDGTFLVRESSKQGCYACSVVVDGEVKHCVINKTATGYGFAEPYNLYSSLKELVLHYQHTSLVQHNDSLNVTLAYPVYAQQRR
Protocol: as §1, §2

p110α/p85α = p110α/p85α (Homo sapiens (Human), UniProt P42336); test: PI3K α inhibition assay (TLC lipid kinase or HTRF); type: biochemical
p110α/p85α, sequence (P42336 whole entry): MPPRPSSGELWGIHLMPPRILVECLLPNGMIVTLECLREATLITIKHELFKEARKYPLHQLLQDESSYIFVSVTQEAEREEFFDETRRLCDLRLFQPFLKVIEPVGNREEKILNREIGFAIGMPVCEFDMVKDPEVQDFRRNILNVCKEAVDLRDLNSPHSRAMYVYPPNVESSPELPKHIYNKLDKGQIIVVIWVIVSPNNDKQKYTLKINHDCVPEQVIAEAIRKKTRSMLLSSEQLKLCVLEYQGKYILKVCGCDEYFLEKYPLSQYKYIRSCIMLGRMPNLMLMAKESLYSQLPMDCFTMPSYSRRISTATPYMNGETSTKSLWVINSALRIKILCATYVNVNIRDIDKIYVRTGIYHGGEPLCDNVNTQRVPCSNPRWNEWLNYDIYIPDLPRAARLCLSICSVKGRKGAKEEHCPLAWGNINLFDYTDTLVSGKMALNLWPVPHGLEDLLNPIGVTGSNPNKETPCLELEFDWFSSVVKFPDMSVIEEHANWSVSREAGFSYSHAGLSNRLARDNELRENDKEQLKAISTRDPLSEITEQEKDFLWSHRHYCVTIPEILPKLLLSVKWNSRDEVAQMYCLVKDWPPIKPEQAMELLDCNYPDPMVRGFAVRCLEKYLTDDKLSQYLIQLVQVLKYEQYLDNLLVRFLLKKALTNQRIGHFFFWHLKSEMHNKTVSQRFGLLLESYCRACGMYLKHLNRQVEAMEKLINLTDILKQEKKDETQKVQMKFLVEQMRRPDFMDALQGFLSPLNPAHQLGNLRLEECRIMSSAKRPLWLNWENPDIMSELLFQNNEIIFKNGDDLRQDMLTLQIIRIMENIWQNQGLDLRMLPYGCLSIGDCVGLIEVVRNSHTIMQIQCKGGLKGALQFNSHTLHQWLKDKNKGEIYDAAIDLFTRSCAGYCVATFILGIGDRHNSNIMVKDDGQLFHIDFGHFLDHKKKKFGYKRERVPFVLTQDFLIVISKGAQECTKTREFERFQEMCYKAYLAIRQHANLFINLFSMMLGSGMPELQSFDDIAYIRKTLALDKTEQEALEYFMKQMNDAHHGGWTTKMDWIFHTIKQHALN
p110α/p85α, sequence (P27986 whole entry partner): as the sequence (P27986 whole entry partner) above
Protocol: as §1, §2

p110β/p85α = p110β/p85α (Homo sapiens, UniProt P42338); test: PI3K β inhibition assay (TLC lipid kinase or HTRF); type: biochemical
p110β/p85α, sequence (P42338 whole entry, looked up): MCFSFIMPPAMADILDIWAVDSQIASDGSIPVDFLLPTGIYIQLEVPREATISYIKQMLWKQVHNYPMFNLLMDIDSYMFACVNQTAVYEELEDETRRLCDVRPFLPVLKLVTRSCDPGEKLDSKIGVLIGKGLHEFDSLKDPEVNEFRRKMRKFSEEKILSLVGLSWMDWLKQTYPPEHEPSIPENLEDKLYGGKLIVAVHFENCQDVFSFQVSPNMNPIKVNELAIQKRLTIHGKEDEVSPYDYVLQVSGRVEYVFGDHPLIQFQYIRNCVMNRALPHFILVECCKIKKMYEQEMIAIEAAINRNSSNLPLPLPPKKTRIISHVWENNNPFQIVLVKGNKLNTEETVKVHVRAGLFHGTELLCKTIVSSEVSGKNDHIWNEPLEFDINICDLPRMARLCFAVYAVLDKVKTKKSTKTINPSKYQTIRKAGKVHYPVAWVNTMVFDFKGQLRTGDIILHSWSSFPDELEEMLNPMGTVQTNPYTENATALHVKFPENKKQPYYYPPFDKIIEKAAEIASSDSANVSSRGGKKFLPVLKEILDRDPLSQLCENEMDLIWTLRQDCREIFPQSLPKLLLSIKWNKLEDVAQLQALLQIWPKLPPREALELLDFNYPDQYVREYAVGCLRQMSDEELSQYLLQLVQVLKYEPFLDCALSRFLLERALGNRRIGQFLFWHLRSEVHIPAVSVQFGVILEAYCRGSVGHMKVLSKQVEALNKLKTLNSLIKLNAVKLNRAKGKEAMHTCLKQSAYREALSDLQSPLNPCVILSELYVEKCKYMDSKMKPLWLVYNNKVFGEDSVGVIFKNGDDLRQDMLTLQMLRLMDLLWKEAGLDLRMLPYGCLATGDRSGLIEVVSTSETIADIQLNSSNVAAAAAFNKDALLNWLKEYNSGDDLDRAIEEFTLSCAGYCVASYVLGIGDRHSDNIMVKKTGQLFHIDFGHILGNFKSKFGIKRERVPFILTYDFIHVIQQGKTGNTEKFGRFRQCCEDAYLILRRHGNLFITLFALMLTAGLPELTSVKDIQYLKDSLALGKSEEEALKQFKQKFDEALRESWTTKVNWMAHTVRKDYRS
Protocol: as §1, §2

p110γ, sequence (P48736 whole entry): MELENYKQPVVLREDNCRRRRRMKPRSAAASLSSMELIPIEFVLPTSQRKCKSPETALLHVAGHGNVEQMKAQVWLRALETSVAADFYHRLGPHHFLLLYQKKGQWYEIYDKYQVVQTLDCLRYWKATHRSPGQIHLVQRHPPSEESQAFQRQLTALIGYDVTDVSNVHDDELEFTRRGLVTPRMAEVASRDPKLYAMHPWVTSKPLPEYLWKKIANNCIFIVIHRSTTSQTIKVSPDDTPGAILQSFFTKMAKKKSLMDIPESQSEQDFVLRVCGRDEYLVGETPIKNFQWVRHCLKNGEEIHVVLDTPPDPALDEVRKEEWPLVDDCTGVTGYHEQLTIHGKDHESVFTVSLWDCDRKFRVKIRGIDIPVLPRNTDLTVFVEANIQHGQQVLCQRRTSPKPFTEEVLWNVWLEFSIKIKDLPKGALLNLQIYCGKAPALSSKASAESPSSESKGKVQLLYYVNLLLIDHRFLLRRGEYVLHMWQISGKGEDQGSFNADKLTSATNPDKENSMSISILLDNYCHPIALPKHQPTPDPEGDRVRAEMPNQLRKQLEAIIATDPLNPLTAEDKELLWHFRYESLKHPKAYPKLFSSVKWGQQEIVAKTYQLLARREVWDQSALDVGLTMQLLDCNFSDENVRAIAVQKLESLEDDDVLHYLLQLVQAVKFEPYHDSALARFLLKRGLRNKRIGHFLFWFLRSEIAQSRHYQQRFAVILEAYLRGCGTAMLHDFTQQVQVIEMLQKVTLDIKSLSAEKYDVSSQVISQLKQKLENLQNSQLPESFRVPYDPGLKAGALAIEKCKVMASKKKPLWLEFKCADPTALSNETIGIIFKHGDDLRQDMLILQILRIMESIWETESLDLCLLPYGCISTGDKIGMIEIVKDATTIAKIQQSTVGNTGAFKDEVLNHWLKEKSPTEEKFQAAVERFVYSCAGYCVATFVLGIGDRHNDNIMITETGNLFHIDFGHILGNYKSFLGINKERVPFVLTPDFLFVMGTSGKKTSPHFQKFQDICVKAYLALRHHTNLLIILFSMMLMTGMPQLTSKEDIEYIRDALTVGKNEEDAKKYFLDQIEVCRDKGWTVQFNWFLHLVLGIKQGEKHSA

Compound	IC50 (p110γ) [nM]	EC50 (Balb/c splenic B cells) [nM]	IC50 (p110δ/p85α) [nM]	IC50 (p110α/p85α) [nM]	IC50 (p110β/p85α; read-out: PI3K β IC50) [nM]	IC50 (p110β/p85α; PI3K β IC50) [nM]
Nc1ncnc2c1c(-c1cc(O)cc(F)c1)nn2Cc1cc2ccccc2nc1N1CCN(CCO)CC1 [Compound 34]	100 to 1000	< 100	< 100	–	–	–
CC(C)c1ccccc1-c1nc2ccccc2cc1Cn1nc(C#C[C@@H](C)O)c2c(N)ncnc21 [Compound 16]	–	100 to 1000	< 100	–	–	–
Nc1ncnc2c1c(-c1cc(O)cc(F)c1)nn2Cc1cnc2ccccc2c1 [Compound 61]	< 100	< 100	< 100	–	–	–
Nc1ncnc2c1c(-c1cc(O)cc(F)c1)nn2Cc1cc2ccccc2nc1N1CCCCC1 [Compound 20]	–	< 100	< 100	–	–	–
CC(c1cc2ccccc2nc1N1CCCC1)n1nc(C#C[C@@H](C)O)c2c(N)ncnc21 (some centres unmarked) [Compound 31]	> 1000	100 to 1000	< 100	–	–	–
CC(c1cc2ccccc2nc1N1CCCC1)n1nc(-c2cc(O)cc(F)c2)c2c(N)ncnc21 (centres unmarked) [Compound 30]	< 100	< 100	< 100	–	–	–
Nc1ncnc2c1c(-c1cccc(O)c1)nn2Cc1cc2ccccc2nc1-c1ccccc1C(F)(F)F [Compound 46]	100 to 1000	100 to 1000	< 100	–	–	–
Nc1ncnc2c1c(-c1cc(O)cc(F)c1)nn2Cc1cc2ccccc2nc1-c1ccccc1F [Compound 19]	–	< 100	< 100	–	–	–
CC(c1cc2ccccc2nc1N1CCN(C)CC1)n1cnc2c(N)ncnc21 (centres unmarked) [Compound 89]	> 1000	–	100 to 1000	> 1000	> 1000	–
CC(Nc1ncnc2[nH]cnc12)c1cc2ccccc2nc1N1CCCC1 (centres unmarked) [Compound 88]	> 1000	–	100 to 1000	> 1000	> 1000	–
CCn1c(=O)c(Cn2nc(-c3cc(O)cc(F)c3)c3c(N)ncnc32)nc2ccccc21 [Compound 117]	> 1000	–	< 100	> 1000	> 1000	–
CCc1nc2ccccc2cc1Cn1nc(-c2ccc3nc(NC(C)=O)sc3c2)c2c(N)ncnc21 [Compound 98]	< 100	–	< 100	> 1000	> 1000	–
CCc1nc2ccccc2cc1Cn1nc(-c2cc(O)cc(F)c2)c2c(N)ncnc21 [Compound 97]	100 to 1000	–	< 100	> 1000	100 to 1000	–
CCC(c1cc2ccccc2nc1N1CCN(C)CC1)n1cnc2c(N)ncnc21 (centres unmarked) [Compound 90]	> 1000	–	100 to 1000	> 1000	> 1000	–
Nc1ncnc2c1c(-c1cnc3[nH]ccc3c1)nn2Cc1cc2ccccc2nc1N1CCCC1 [Compound 23]	–	< 100	< 100	–	–	–
CN1CCN(c2nc3ccccc3cc2Cn2cnc3c(N)ncnc32)CC1 [Compound 67]	> 1000	–	> 1000	> 1000	–	> 1000
Nc1ncnc2c1c(-c1cccc(O)c1)nn2Cc1cc2ccccc2[nH]c1=O [Compound 109]	> 1000	–	100 to 1000	> 1000	> 1000	–
Cc1cccc2cc(Cn3nc(-c4cc(O)cc(F)c4)c4c(N)ncnc43)c(N3CCN(C)CC3)nc12 [Compound 12]	–	< 100	< 100	–	–	–
CCn1c(=O)c(Cn2nc(-c3ccc4nc(N)sc4c3)c3c(N)ncnc32)nc2ccccc21 [Compound 119]	< 100	–	< 100	100 to 1000	> 1000	–

Compound	IC50 (p110γ) [nM]	EC50 (Balb/c splenic B cells) [nM]	IC50 (p110δ/p85α) [nM]	IC50 (p110α/p85α) [nM]	IC50 (p110β/p85α; read-out: PI3K β IC50) [nM]	IC50 (p110β/p85α; PI3K β IC50) [nM]
Cc1cccc2cc(Cn3nc(-c4cccc(O)c4)c4c(N)ncnc43)c(N3CCN(C)CC3)nc12 [Compound 13]	–	< 100	< 100	–	–	–
COc1ccccc1-c1nc2ccccc2cc1Cn1nc(-c2cc(O)cc(F)c2)c2c(N)ncnc21 [Compound 15]	–	< 100	< 100	–	–	–
CCn1c(=O)c(Cn2nc(-c3ccc4nc(NC(C)=O)sc4c3)c3c(N)ncnc32)nc2ccccc21 [Compound 118]	100 to 1000	–	< 100	> 1000	> 1000	–
CCC(Nc1ncnc2[nH]cnc12)c1cc2ccccc2nc1N1CCN(C)CC1 (centres unmarked) [Compound 95]	> 1000	–	< 100	> 1000	> 1000	–
Cn1c(=O)c(Cn2nc(-c3cc(O)cc(F)c3)c3c(N)ncnc32)cc2ccccc21 [Compound 112]	100 to 1000	–	< 100	> 1000	> 1000	–
Nc1ncnc2c1c(-c1cc(O)cc(F)c1)nn2Cc1cc2ccccc2nc1NC1CC1 [Compound 29]	> 1000	–	100 to 1000	> 1000	> 1000	–
CCc1nc2ccccc2cc1Cn1nc(-c2ccc3nc(N)sc3c2)c2c(N)ncnc21 [Compound 99]	< 100	–	< 100	100 to 1000	100 to 1000	–
Nc1ncnc2c1c(-c1cc(O)cc(F)c1)nn2Cc1cc2ccccc2nc1NC1CCC1 [Compound 42]	–	< 100	< 100	–	–	–
Cc1cccc2cc(Cn3nc(I)c4c(N)ncnc43)c(N3CCN(C)CC3)nc12 [Compound 11]	–	< 100	< 100	–	–	–
Cn1c(=O)c(Cn2nc(-c3cccc(O)c3)c3c(N)ncnc32)cc2ccccc21 [Compound 111]	> 1000	–	100 to 1000	> 1000	> 1000	–
NC(=O)/C=C/c1nn(Cc2cc3ccccc3nc2-c2ccccc2F)c2ncnc(N)c12 [Compound 194]	> 1000	–	100 to 1000	> 1000	> 1000	–
NC(=O)c1nn(Cc2cc3ccccc3nc2-c2ccccc2F)c2ncnc(N)c12 [Compound 191]	> 1000	–	100 to 1000	> 1000	–	> 1000
Nc1ncnc2c1c(-c1cc(O)cc(F)c1)nn2Cc1cc2ccccc2[nH]c1=O [Compound 114]	> 1000	–	< 100	> 1000	> 1000	–
CCn1c(=O)c(Cn2nc(-c3cc(O)cc(F)c3)c3c(N)ncnc32)cc2ccccc21 [Compound 113]	> 1000	–	< 100	> 1000	> 1000	–
CCc1nc2ccccc2cc1Cn1nc(-c2cccc(O)c2)c2c(N)ncnc21 [Compound 96]	100 to 1000	–	< 100	> 1000	> 1000	–
Cc1cccc2cc(Cn3nc(-c4cccc(O)c4)c4c(N)ncnc43)c(N3CCOCC3)nc12 [Compound 66]	< 100	–	< 100	> 1000	100 to 1000	–
CN1CCN(c2nc3ccccc3cc2CNc2ncnc3[nH]cnc23)CC1 [Compound 87]	> 1000	–	> 1000	> 1000	> 1000	–
CC(=O)Nc1nc2ccc(-c3nn(Cc4cc5ccccc5nc4-n4ccnc4C)c4ncnc(N)c34)cc2s1 [Compound 170]	100 to 1000	–	< 100	> 1000	> 1000	–
